This is an account of results in patent US20220226299A1 (NIPPON CHEMIPHAR CO., LTD., priority 2019, published 2022).

Structures are written as SMILES. Counter-ions that a name gives are not always drawn.

T1 sequence (O95180 whole entry): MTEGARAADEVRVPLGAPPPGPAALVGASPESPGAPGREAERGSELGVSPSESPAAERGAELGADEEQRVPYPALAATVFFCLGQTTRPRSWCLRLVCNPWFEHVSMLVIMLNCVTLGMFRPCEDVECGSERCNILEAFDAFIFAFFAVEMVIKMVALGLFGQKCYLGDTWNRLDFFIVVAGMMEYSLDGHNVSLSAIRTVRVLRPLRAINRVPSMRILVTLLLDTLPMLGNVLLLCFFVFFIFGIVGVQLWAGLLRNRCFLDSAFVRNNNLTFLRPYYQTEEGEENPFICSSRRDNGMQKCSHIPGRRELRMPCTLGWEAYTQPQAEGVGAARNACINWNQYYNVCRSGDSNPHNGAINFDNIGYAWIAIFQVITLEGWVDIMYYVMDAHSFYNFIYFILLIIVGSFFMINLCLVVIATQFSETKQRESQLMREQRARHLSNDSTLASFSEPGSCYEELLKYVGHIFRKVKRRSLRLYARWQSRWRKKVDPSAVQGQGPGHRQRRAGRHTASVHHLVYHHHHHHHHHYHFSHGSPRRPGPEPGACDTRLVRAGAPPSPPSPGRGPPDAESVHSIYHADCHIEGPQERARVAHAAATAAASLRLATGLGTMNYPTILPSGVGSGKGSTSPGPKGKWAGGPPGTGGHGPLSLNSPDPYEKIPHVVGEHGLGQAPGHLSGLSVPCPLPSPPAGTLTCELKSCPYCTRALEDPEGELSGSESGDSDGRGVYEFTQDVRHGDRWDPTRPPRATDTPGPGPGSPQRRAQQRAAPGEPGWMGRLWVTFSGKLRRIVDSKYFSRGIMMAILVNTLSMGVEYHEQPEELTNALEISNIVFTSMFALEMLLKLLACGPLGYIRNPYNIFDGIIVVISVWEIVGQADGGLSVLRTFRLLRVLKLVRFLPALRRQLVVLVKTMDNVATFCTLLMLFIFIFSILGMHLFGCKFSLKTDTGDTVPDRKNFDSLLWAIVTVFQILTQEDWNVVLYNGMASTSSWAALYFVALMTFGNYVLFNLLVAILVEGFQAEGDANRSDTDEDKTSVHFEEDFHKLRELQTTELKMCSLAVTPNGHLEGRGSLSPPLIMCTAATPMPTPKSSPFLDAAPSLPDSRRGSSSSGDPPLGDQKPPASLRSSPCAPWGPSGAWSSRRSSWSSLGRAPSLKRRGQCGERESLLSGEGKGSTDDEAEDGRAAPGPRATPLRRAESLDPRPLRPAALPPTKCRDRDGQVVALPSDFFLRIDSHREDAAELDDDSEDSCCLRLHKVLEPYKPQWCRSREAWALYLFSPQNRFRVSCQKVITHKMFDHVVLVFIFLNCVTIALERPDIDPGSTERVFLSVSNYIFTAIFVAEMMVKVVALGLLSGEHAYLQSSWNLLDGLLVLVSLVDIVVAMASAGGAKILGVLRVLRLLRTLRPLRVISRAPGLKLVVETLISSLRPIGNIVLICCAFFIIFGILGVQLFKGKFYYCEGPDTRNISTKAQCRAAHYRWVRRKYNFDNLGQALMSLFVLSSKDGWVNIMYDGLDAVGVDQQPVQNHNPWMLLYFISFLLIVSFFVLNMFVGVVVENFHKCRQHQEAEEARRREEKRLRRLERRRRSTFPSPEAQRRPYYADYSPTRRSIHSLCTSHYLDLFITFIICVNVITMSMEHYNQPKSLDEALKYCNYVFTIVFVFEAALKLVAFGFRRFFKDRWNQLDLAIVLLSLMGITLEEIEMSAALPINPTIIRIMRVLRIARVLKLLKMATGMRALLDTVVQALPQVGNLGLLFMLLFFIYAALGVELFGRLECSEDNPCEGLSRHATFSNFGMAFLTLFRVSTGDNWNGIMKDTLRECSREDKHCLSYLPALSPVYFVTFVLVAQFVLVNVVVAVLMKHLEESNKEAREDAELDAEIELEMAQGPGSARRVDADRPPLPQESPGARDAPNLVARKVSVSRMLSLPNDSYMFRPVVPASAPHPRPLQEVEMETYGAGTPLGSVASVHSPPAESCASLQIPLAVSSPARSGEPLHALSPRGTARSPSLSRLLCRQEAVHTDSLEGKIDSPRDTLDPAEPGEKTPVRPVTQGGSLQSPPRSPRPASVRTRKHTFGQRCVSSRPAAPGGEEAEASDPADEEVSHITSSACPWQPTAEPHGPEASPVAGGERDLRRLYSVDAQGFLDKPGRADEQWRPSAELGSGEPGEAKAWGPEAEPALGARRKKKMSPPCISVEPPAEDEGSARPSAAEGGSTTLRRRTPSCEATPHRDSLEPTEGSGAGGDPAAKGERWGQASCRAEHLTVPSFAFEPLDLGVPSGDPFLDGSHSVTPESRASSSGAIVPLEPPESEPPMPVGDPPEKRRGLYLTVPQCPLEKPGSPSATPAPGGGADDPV

The assay has as its target T1, human Cav3.2 channels (Homo sapiens, UniProt O95180).
T1 construct: human Cav3.2 channel ORF (Open Reading Frame) gene; expressed in transfected cells; host or cells: HEK293 cells (ATCC No. CRL-1573), pcDNA3.1(+) plasmid
The assay can be described thus: T-type calcium blocking action: intracellular calcium (Fluo-4 AM fluorescence) in HEK293 cells steadily expressing human Cav3.2 channels. The assay is classed as cell-based. As to conditions: HEK293 cells expressing human Cav3.2; KCl-stimulated calcium influx, Fluo-4 fluorescence; Tables 1 to 3. The text has this:
T-Type Calcium Blocking Action
(1) Construction of Cells Steadily Expressing Human Cav3.2 Channels
A sequence obtained by adding HindIII site and a kozak sequence (GCCACC) to the 5′-side of human Cav3.2 channel ORF (Open Reading Frame) gene and adding a KpnI site to the 3′-side of the gene, was incorporated into pcDNA3.1(+) (Thermo Fisher Scientific, #V790-20), and the plasmid was introduced into HEK293 cells (ATCC No. CRL-1573) according to the protocol of FuGENE (registered trademark) HD Transfection Reagent (Promega, #E2311).
(2) Method for Measuring Intracellular Calcium Concentration
The cells steadily expressing human Cav3.2 channels produced by testing method (1) were seeded on a 96-well plate (Dulbecco's modified Eagle medium (DMEM) medium containing 10% fetal bovine serum (FBS) was used as a medium). The cells were seeded and cultured for 48 hours under conditions of 37° C. and 5% CO2. Thereafter, the cells were washed with buffer A in order to remove the medium. Each well was treated with 80 μL of a fluorescent dye solution produced by mixing 22 μg of a fluorescent calcium indicator, Fluo-4 AM (Dojindo Laboratories, #F311), 20 μL of DMSO, 1 μL of 10% Pluronic F-127 (Thermo Fisher Scientific, #P6866), and 4 mL of buffer A. The cells were allowed to stand for 45 minutes at room temperature under light-shielded conditions, and then washed with buffer B in order to completely replace the solution. 70 μL of DMSO having the same concentration as that of a test compound as a negative control and 70 μL of a mixture containing 1 μM of a known blocker RQ-00311651 and the test compound as a positive control were each added to each well in a form of being contained in the buffer B. The test compound was dissolved in 100% DMSO and added at a final concentration of 0.1%. Then, the cells were further allowed to stand at room temperature under light-shielded conditions for 15 minutes and placed in a microplate reader EnVision (PerkinElmer). Background fluorescence was measured in each well, and then a 5 μg/mL grammicidin solution was added to buffer B at 10 μL/well. After 90 seconds, baseline fluorescence was measured. Thereafter, 83.8 mM KCl was added to buffer B at 20 μL/well, and an increase in fluorescence caused by calcium influx generated by the stimulus was measured for 10 seconds. A blocking percentage was calculated from a maximum fluorescence increase value from a baseline, a logarithmic value of a compound concentration and blockery activity were plotted, and thereby an IC50 value was calculated. In the measurement, fluorescence at 510 nm that was emitted when the cells were irradiated with excitation light at 485 nm was observed.
Buffer A: 140 mM NaCl, 5 mM KCl, 1 mM MgCl2, 0.5 mM CaCl2, 10 mM Glucose, 10 mM HEPES, pH 7.3
Buffer B: 137.9 mM Choline-Cl, 4.1 mM KCl, 1 mM MgCl2, 0.5 mM CaCl2, 10 mM Glucose, 10 mM HEPES, pH 7.3
A general note: Calcium assays in cells follow changes in intracellular calcium, usually with a dye or a luminescent sensor.
Regarding `O=C(N[C@@H]1CCN(c2cncc(C(F)(F)F)c2)C1)[C@H]1C[C@@H]1c1nc2ccc(F)cc2o1` [Example 44, (1S,2S)-2-(6-fluorobenzo[d]oxazol-2-yl)-N—((R)-1-(5-(trifluoromethyl)pyridin-3-yl)pyrrolidin-3-yl)cyclopropane-1-carboxyamide], the IC50 was 14 nM. For the molecule `O=C(N[C@@H]1CCN(c2cncc(C(F)(F)F)c2)C1)[C@H]1C[C@@H]1c1nc2cc(F)c(F)cc2o1` [Example 45], the IC50 was 11 nM. `O=C(Cc1ccc(N2CC3(COC3)C2)cc1)N[C@@H]1CCN(c2cncc(C(F)(F)F)c2)C1` [Example 46, (R)-2-(4-(2-oxa-6-azaspiro[3.3]heptan-6-yl)phenyl)-N-(1-(5-(trifluoromethyl)pyridin-3-yl)pyrrolidin-3-yl) acetamide]: the IC50 worked out at 260 nM. As for `O=C(N[C@@H]1CCN(c2nc(C(F)(F)F)cs2)C1)[C@H]1C[C@@H]1c1nc2ccccc2o1` [Example 47, (1S,2S)-2-(benzo[d]oxazol-2-yl)-N—((R)-1-(4-(trifluoromethyl)thiazol-2-yl)pyrrolidin-3-yl)cyclopropane-1-carboxyamide], the IC50 was found to be 350 nM. For `O=C(N[C@@H]1CCN(c2ccc(C(F)(F)F)nc2)C1)[C@H]1C[C@@H]1c1nc2ccc(F)cc2o1` [Example 48, (1S,2S)-2-(6-fluorobenzo[d]oxazol-2-yl)-N—((R)-1-(6-(trifluoromethyl)pyridin-3-yl)pyrrolidin-3-yl)cyclopropane-1-carboxyamide], the IC50 worked out at 240 nM.

For the molecule `O=C(N[C@@H]1CCN(c2cncc(C(F)(F)F)c2)C1)[C@H]1C[C@@H]1c1nc2cc(F)ccc2o1` [Example 49, (1S,2S)-2-(5-fluorobenzo[d]oxazol-2-yl)-N—((R)-1-(5-(trifluoromethyl)pyridin-3-yl)pyrrolidin-3-yl)cyclopropane-1-carboxyamide], the IC50 was determined as 7.1 nM. `O=C(N[C@@H]1CCN(c2cncc(C(F)(F)F)c2)C1)[C@@H]1C[C@H]1c1nc2ccccc2o1` [Example 50, (1R,2R)-2-(benzo[d]oxazol-2-yl)-N—((R)-1-(5-(trifluoromethyl)pyridin-3-yl)pyrrolidin-3-yl)cyclopropane-1-carboxyamide]: the IC50 came to 680 nM.

Turning to `O=C(N[C@@H]1CCN(c2ccc(C(F)(F)F)nc2)C1)[C@H]1C[C@@H]1c1nc2cc(F)ccc2o1` [Example 51], the IC50 was 120 nM. As to `O=C(N[C@@H]1CCN(c2ccc(C(F)(F)F)nc2)C1)[C@H]1C[C@@H]1c1nc2ccccc2[nH]1` [Example 54, (1S,2S)-2-(1H-benzo[d]imidazol-2-yl)-N—((R)-1-(6-(trifluoromethyl)pyridin-3-yl)pyrrolidin-3-yl)cyclopropane-1-carboxyamide], the IC50 is 87 nM. Regarding `O=C(N[C@@H]1CCN(c2nc(C(F)(F)F)cs2)C1)[C@H]1C[C@@H]1c1nc2ccccc2[nH]1` [Example 64, (1S,2S)-2-(1H-benzo[d]imidazol-2-yl)-N—((R)-1-(4-(trifluoromethyl)thiazol-2-yl)pyrrolidin-3-yl)cyclopropane-1-carboxyamide], the IC50 turned out to be 37 nM.

Consider `O=C(N[C@@H]1CCCN(c2ccc(C(F)(F)F)cc2)C1)[C@H]1C[C@@H]1c1nc2ccccc2[nH]1` [Example 65, (1S,2S)-2-(1H-benzo[d]imidazol-2-yl)-N—((R)-1-(4-(trifluoromethyl)phenyl)piperidin-3-yl)cyclopropane-1-carboxyamide], for which the IC50 amounted to 8900 nM. With `CC(C)(C)c1csc(N2CC[C@@H](NC(=O)[C@H]3C[C@@H]3c3nc4ccccc4[nH]3)C2)n1` [Example 68, (1S,2S)-2-(1H-benzo[d]imidazol-2-yl)-N—((R)-1-(4-(tert-butyl)thiazol-2-yl)pyrrolidin-3-yl)cyclopropane-1-carboxyamide], the IC50 is 75 nM. Consider `O=C(N[C@@H]1CCN(c2cnc(C(F)(F)F)nc2)C1)[C@H]1C[C@@H]1c1nc2ccccc2[nH]1` [Example 70, (1S,2S)-2-(1H-benzo[d]imidazol-2-yl)-N—((R)-1-(2-(trifluoromethyl)pyrimidin-5-yl)pyrrolidin-3-yl)cyclopropane-1-carboxyamide], for which the IC50 is 210 nM. Turning to `O=C(N[C@@H]1CCN(c2cncc(C(F)(F)F)c2)C1)[C@H]1C[C@@H]1c1nc2ccccc2[nH]1` [Example 71, (1S,2S)-2-(1H-benzo[d]imidazol-2-yl)-N—((R)-1-(5-(trifluoromethyl)pyridin-3-yl)pyrrolidin-3-yl)cyclopropane-1-carboxyamide], the IC50 was 7.9 nM. Regarding `O=C(N[C@@H]1CCN(c2nc3ccc(F)cc3s2)C1)[C@H]1C[C@@H]1c1nc2ccccc2[nH]1` [Example 72, (1S,2S)-2-(1H-benzo[d]imidazol-2-yl)-N—((R)-1-(6-fluorobenzo[d]thiazol-2-yl)pyrrolidin-3-yl)cyclopropane-1-carboxyamide], the IC50 was determined as 210 nM. Take `O=C(N[C@@H]1CCN(c2ccc(C(F)(F)F)nc2)C1)[C@H]1C[C@@H]1c1nc2ccccc2n1C1CC1` [Example 73, (1S,2S)-2-(1-cyclopropyl-1H-benzo[d]imidazol-2-yl)-N—((R)-1-(6-(trifluoromethyl)pyridin-3-yl)pyrrolidin-3-yl)cyclopropane-1-carboxyamide]: the half-inhibitory concentration (IC50) was 1000 nM. With `O=C(N[C@@H]1CCN(c2ccc3cc(F)ccc3n2)C1)[C@H]1C[C@@H]1c1nc2ccccc2[nH]1` [Example 74, (1S,2S)-2-(1H-benzo[d]imidazol-2-yl)-N—((R)-1-(6-fluoroquinolin-2-yl)pyrrolidin-3-yl)cyclopropane-1-carboxyamide], the IC50 was 130 nM. Take `O=C(N[C@@H]1CCN(c2cccc(C(F)(F)F)c2)C1)[C@H]1C[C@@H]1c1nc2ccccc2n1C1CC1` [Example 75, (1S,2S)-2-(1-cyclopropyl-1H-benzo[d]imidazol-2-yl)-N—((R)-1-(3-(trifluoromethyl)phenyl)pyrrolidin-3-yl)cyclopropane-1-carboxyamide]: the IC50 came to 310 nM. Regarding `O=C(N[C@@H]1CCN(c2cncc(Br)c2)C1)[C@H]1C[C@@H]1c1nc2ccccc2[nH]1` [Example 76, (1S,2S)-2-(1H-benzo[d]imidazol-2-yl)-N—((R)-1-(5-bromopyridin-3-yl)pyrrolidin-3-yl)cyclopropane-1-carboxyamide], the IC50 was found to be 67 nM. To `O=C(Cc1ccc2ncccc2c1)N[C@@H]1CCN(c2cncc(C(F)(F)F)c2)C1` [Example 77, (R)-2-(quinolin-6-yl)-N-(1-(5-(trifluoromethyl)pyridin-3-yl)pyrrolidin-3-yl)acetamide] belongs 200 nM; to `O=C(Cc1c[nH]c2ccccc12)N[C@@H]1CCN(c2cncc(C(F)(F)F)c2)C1` [Example 78, (R)-2-(1H-indol-3-yl)-N-(1-(5-(trifluoromethyl)pyridin-3-yl)pyrrolidin-3-yl)acetamide], 270 nM. `O=C(Cc1ccc2cccnc2c1)N[C@@H]1CCN(c2cncc(C(F)(F)F)c2)C1` [Example 79, (R)-2-(quinolin-7-yl)-N-(1-(5-(trifluoromethyl)pyridin-3-yl)pyrrolidin-3-yl)acetamide hydrochloride]: the IC50 amounted to 150 nM. For `O=C(Cc1ccc(C2CC2)cc1)N[C@@H]1CCN(c2nc(C(F)(F)F)co2)C1` [Example 80, (R)-2-(4-cyclopropylphenyl)-N-(1-(4-(trifluoromethyl)oxazol-2-yl)pyrrolidin-3-yl)acetamide], the IC50 is 720 nM. Turning to `Cn1nc(CC(=O)N[C@@H]2CCN(c3cncc(C(F)(F)F)c3)C2)cc1C(F)(F)F` [Example 81, (R)-2-(1-methyl-5-(trifluoromethyl)-1H-pyrazol-3-yl)-N-(1-(5-(trifluoromethyl)pyridin-3-yl)pyrrolidin-3-yl) acetamide], the IC50 worked out at 550 nM.

Consider `O=C(Cc1ccc(C(F)(F)F)nc1)N[C@@H]1CCN(c2cncc(C(F)(F)F)c2)C1` [Example 82, (R)-2-(6-(trifluoromethyl)pyridin-3-yl)-N-(1-(5-(trifluoromethyl)pyridin-3-yl)pyrrolidin-3-yl)acetamide], for which the IC50 came out at 750 nM.

Usually IC50 stands for the concentration needed to halve the response being measured.
